# Results from ChEMBL document CHEMBL6074678, “Selectively Antagonizing the NOD1-Mediated Inflammatory Signaling Pathway Mitigates the Gastric Inflammation Induced by Helicobacter pylori Infection” (J Med Chem, 2024).
# Activity calls are given as the source filed them. The rule behind the calls is not given here.
# Columns and labels:
# [1] = Cytotoxicity against HEK-Blue mNOD1 cells by SRB assay; format: toxicity, cell-based; settings: human
# [2] = biological target: T1, Nucleotide-binding oligomerization domain-containing protein 1 (Homo sapiens) (UniProt Q9Y239); test: Antagonist activity at NOD1 in human THP-1 cells assessed as decrease in phosphorylated p65 level at 0.1 to 1 uM incubated for 1 hr followed by C12-iE-DAP stimulation for 30 mins by Western blot analysis; format: cell-based; settings: filed as antagonist, dose 0.1-1 µM, time 1.5 hrs
# T1 sequence (whole entry): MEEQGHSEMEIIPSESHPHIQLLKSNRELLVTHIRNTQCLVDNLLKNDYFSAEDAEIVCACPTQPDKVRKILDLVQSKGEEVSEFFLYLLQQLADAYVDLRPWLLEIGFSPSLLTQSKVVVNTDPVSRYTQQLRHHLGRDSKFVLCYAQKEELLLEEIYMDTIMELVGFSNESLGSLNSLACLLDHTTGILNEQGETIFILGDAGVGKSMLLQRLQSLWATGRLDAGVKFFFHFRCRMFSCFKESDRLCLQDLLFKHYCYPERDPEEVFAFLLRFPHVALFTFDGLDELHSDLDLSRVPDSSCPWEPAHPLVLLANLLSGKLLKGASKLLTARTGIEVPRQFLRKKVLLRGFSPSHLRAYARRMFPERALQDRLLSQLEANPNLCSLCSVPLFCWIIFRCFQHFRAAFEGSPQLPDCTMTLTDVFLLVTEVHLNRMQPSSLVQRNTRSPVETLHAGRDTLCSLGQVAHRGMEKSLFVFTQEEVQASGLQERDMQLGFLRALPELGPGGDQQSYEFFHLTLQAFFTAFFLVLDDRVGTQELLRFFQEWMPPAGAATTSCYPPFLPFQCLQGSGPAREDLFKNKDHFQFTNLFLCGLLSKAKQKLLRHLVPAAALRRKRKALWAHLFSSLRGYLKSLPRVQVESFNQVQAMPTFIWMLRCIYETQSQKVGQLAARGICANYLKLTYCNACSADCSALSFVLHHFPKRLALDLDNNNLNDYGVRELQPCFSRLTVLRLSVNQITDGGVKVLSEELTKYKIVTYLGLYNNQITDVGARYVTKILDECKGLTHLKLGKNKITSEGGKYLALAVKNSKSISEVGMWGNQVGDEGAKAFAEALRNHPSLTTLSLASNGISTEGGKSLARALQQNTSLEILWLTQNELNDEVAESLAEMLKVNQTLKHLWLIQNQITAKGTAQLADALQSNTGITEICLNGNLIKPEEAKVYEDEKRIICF
# [3] = biological target: T2, Nucleotide-binding oligomerization domain-containing protein 1 (Homo sapiens, UniProt Q9Y239); test: Antagonist activity at human NOD1 expressed in HEK293 cells assessed as decrease in NF-kappaB activation; format: cell-based
# T2 sequence (Q9Y239 whole entry): T1 sequence (whole entry)
# [4] = MRT (infinity) in C57BL/6 mouse at 2 mg/kg, iv by LC-MS/MS analysis; format: ADME, organism-based; settings: in vivo
# [5] = system: BMDM; test: Anti-inflammatory activity in mouse BMDM cells assessed as decrease in TNF-alpha mRNA level at 1 to 5 uM pretreated for 1 hr followed by infection with Helicobacter pylori for 2 hrs by RT-qPCR analysis; format: functional, cell-based; settings: dose 1-5 µM, time 3.0 hrs
# [6] = biological target: T1, Nucleotide-binding oligomerization domain-containing protein 1 (Homo sapiens); test: Antagonist activity at NOD1 in human THP-1 cells assessed as decrease in phosphorylated p38 level at 0.1 to 1 uM incubated for 1 hr followed by C12-iE-DAP stimulation for 30 mins by Western blot analysis; format: cell-based; settings: filed as antagonist, dose 0.1-1 µM, time 1.5 hrs
# [7] = system: Mus musculus; test: Anti-inflammatory activity in C57BL/6 mouse assessed as inhibition in serum keratinocyte chemoattractant level at 12.5 to 50 mg/kg, po pretreated with compound for 15 mins followed by C12-iE-DAP administration measured after 2 hrs by ELISA relative to control; format: functional; settings: dose 12.5-50 mg/kg, time 135 min, 2.25 h
# [8] = biological target: T3, Nucleotide-binding oligomerization domain-containing protein 1 (Mus musculus) (UniProt Q8BHB0); test: Antagonist activity at NOD1 in mouse BMDM cells assessed as decrease in phosphorylated p38 level at 0.1 to 1 uM incubated for 1 hr followed by C12-iE-DAP stimulation for 30 mins by Western blot analysis; format: cell-based; settings: filed as antagonist, dose 0.1-1 µM, time 1.5 hrs
# T3 sequence (whole entry): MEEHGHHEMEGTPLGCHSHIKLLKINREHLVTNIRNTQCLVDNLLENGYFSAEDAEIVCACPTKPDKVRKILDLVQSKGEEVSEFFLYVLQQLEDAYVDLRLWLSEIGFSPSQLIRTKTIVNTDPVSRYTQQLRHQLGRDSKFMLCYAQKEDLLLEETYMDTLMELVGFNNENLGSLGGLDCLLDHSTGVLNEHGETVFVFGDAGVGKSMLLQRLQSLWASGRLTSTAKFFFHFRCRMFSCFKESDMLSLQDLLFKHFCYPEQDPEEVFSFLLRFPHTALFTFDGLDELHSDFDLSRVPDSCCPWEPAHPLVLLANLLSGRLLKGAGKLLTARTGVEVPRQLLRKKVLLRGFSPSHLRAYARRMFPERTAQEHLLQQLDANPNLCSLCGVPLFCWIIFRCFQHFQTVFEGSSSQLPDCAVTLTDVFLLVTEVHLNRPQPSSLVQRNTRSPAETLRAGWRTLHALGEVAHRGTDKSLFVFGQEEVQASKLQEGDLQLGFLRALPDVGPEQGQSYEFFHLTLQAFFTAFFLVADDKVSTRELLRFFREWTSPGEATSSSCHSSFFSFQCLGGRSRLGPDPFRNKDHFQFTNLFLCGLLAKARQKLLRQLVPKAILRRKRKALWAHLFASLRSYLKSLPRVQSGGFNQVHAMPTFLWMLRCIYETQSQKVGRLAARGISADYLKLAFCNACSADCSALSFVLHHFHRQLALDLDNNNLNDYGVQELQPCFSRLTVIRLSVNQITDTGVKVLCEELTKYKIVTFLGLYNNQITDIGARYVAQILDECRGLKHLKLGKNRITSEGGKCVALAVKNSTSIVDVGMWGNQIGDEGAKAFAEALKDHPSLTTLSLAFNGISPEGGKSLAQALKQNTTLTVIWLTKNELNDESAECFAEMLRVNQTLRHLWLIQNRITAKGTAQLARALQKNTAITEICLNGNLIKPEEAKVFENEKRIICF
smiles,measurement,setting,value
CS(=O)(=O)c1ccc2nc(Cl)n(-c3ccc(Cl)c(NS(=O)(=O)c4c(F)cccc4F)c3)c(=O)c2c1,Activity,[1],Non-toxic
same,inhibition,[2],Active
same,IC50,[3],0.8 nM
same,MRT inf,[4],2.76 min
same,Activity,[5],Active
same,inhibition,[6],Active
same,inhibition (INH),[7],~77%
same,inhibition,[8],Active
